These results are taken from patent US20020168658A1, “Amplification of nucleic acids” (YALE UNIVERSITY, priority 1995, published 2002).

For test [1], the system named is MHCcln1 template (64% G+C). Nature of the test: Amplification using AmpliTaq DNA polymerase under standard conditions with additives. In kind it is biochemical. Conditions: DMSO 10% v/v, betaine up to 2.5 M, glycerol 10% v/v, formamide 10% v/v, TMACl 0.1 mM to 1.0 M. The text has this:
(§1) A number of test DNAs are utilized in amplification reactions. Four of the test fragments are:
(ii) a 1.6 kb fragment from the MHC region, MHCclnl, which has a 64% G+C content (see Shukla et al., Nucleic Acids Res. 19:4233, 1991; GenBank Accession No. L20433; SEQ ID No. 3, which presents nucleotides 320 to 850 of L20433);
(§2) Thus, the sizes of the amplified fragments for each of these four templates, with the exception of MHCcln1, include 200 bp of multiple cloning sites of pBluescript vector.
(§3) (See Science 239:487, 1988).

Test [2] concerns OCT-T1 template (80% G+C). Described as above. In kind it is biochemical, human. Conditions: DMSO 10% v/v, betaine up to 2.5 M, glycerol 10% v/v, formamide 10% v/v, TMACl 0.1 mM to 1.0 M.
Text: as §1
(iii) a 0.8 kb fragment of human OCT-T1 cDNA, which encodes a transcription factor expressed in T lymphocytes that binds the octamer sequence, and which has an 80% G+C content (see Bhargava et al., Proc. Natl. Acad. Sci. USA 91:10260, 1993; SEQ ID NO. 4); and
As each of these fragments are cloned in pBluescript or a pUC plasmid (MHCcln1), primers for amplification of these fragments are the M13 forward primer ([…]; SEQ. ID No. 1) and the M13 reverse primer ([…]; SEQ ID No. 2). Thus, the sizes of the amplified fragments for each of these four templates, with the exception of MHCcln1, include 200 bp of multiple cloning sites of pBluescript vector.
The two G+C-rich templates are unsuccessfully amplified (MHCcln1 and OCT-T1) using AmpliTaq® DNA polymerase (Perkin-Elmer Cetus) under standard conditions. (See Science 239:487, 1988). […] In addition, betaine (>1.0 M), formamide (>5%), and TMACl (>100 mM) are inhibitory for amplification of the non-G+C-rich template OCT1.

The test system of the next test is OCT1 template. The experiment in a line: Amplification using two enzyme mixture Klentaq LA16 with additives. The following applies: for amplification of OCT1: 2.2 M betaine or 10% DMSO, FIG. 1A lanes 1-2; for effect on amplification of OCT1: at 0.1-1.0 M. In kind it is biochemical, human. On the procedure: (§4) Each of the G+C-rich templates is set up in an amplification reaction using a two enzyme mixture, with and without the addition of betaine (0.5 to 2.5 M), DMSO (5-10%), formnamide (5-10%), glycerol (5-10%), TMACl (0.1 mM to 1 M), and tetramethylammonium acetate (TMAA) (0.1 mM-1.0 M).
(§5) The amplification reaction (50 μl) is performed in 20 mM Tris-HCl, pH 9.0 at 25° C., containing 150 μg/ml of bovine serum albumin, 16 mM ammonium sulfate, 2.5 mM magnesium chloride, 200 μM of each dNTP, 50 ng each of the M13 forward primer and the M13 reverse primer, 0.5-1.0 ng of plasmid templates and 0.2-0.4 μl of Klentaq LA16 (a 1:15 v/v ratio of Klentaq1 (Ab Peptides Inc., St. Louis, Mo.), which is Taq DNA polymerase lacking the 5′ to 3′ exonuclease activity, and Pfu DNA polymerase (Stratagene, LaJolla, Calif.); the long and accurate (LA) system described in Barnes, Proc. Natl. Acad. Sci. USA 91:2216, 1994). DMSO, TMACl, TMAA, betaine, or the combination of DMSO and betaine is added to aliquots of the same mixture without dNTPs and overlaid with mineral oil. Amplification is performed in a thermocycler instrument using thin-walled tubes (0.5 ml). The tubes are heated at 95° C. for 15 seconds and amplification is initiated by the addition of dNTPs at 80° C. The following cycling conditions are used for 25 cycles: denaturation at 94° C. for 15 seconds, annealing at 50 to 55° C. for 1 minute, and extension at 68° C. for 5 minutes. Following amplification, 10 μl of the resulting product is loaded onto a 1% agarose gel (see Molecular Cloning: A Laboratory Manual by J. Sambrook et al., Cold Spring Harbor, 1989). The amplified DNA is stained with ethidium bromide and the gel is photographed while UV-irradiated by a transilluminator.

Test [3] deals with OCT-T1 template (80% G+C). Described as above. In kind it is biochemical, human. The following applies: for amplification of OCT-T1: Klentaq LA16, 2.2 M betaine or 10% DMSO, FIG. 1A lanes 7-8; for OCT-T1 amplification: salt >0.15 M. On the procedure: as §4, §5
(§6) Various analogues of betaine and two tetraalkylammonium salts are used to amplify OCT-T1 or TFR templates. Amplification reactions are performed as above in the presence of either 2 M analogue or at least 0.15 M salt.

A further test relates to TFR template (44% G+C). The description is as above. Conditions: for amplification of TFR: Klentaq LA16, 2.2 M betaine or 10% DMSO, FIG. 1A lanes 3-4; for TFR amplification: salt >0.15 M. Type of test: biochemical, human. On the procedure: as §4, §5, §6
For another test, the system named is MHCcln1 template. Described as above. Type of test: biochemical. Conditions: 2.2 M betaine or 10% DMSO, FIG. 1A lanes 5-6. On the procedure:
as §4
as §5, with “The following cycling conditions are used for 25 cycles: denaturation at 94° C. for 15 seconds, annealing at 50 to 55° C. for 1 minute, and extension at 68° C. for 5 minutes. Following amplification, 10 μl of the resulting product is loaded onto a 1% agarose gel (see Molecular Cloning: A Laboratory Manual by J. Sambrook et al., Cold Spring Harbor, 1989). The amplified DNA is stained with ethidium bromide and the gel is photographed while UV-irradiated by a transilluminator.” left out

The test system of test [4] is mixture of the 4 templates, OCT1, OCT-T1, TFR and MHCcln1. The experiment in a line: Amplification of a mixture of the four templates using Klentaq LA16, varying DMSO and/or betaine. Type of test: biochemical. Conditions: for uniformity of amplification of the four templates: DMSO (5%, 10%) or betaine (1.1 M, 2.2 M) alone, FIG. 1B lanes 9-12. On the procedure:
as §5
Amplification is also performed on a mixture of the four templates, varying the concentrations of DMSO and/or betaine. […] Thus, by adding both DMSO and betaine, preferably within a range of 1.0 M betaine with 6-8% DMSO or 5% DMSO with 1.2-1.8 M betaine, all four templates are amplified.

The next test concerns OCT1 template (52% G+C). Nature of the test: Amplification using AmpliTaq DNA polymerase under standard conditions with additives. Type of test: biochemical, human.
Text: as §1
(i) a 2.7 kb cDNA encoding the octamer binding protein, OCT1 GenBank accession No. X13403; Sturm et al., Genes & Dev. 2:1582, 1988; SEQ ID No. 8), which has a 52% G+C content;
as §2, §3

The mark [5] stands for this setting: higher concentration of DMSO (12-15%) or betaine (1.8-2.5 M).

Each structure is given as a SMILES string.

For the compound `C[S+](C)[O-]` [DMSO, dimethyl sulfoxide], the “visible amplification of MHCcln1” value in test [1] is recorded as “did not result in visible amplification”. Besides, the “visible amplification of OCT-T1” value in test [2] is “did not result in visible amplification”. For the same compound, the “amplification of OCT1” value in the test on OCT1 template is “could be amplified”. Further, the “amplification of OCT-T1” value in test [3] is “could be amplified”. Moreover, the “amplification of TFR” value in the test on TFR template (44% G+C) was “could be amplified”. The “amplification of MHCcln1” value in the test on MHCcln1 template is given as “could be amplified”. Moreover, the “uniformity of amplification of the four templates” value in test [4] is on record as “not amplified uniformly”. The “amplification of all four templates” value in test [4] (setting [5]) is recorded as “variable amplification”.
On to `C[N+](C)(C)CC(=O)O` [Glycine betaine], for which, in test [1], the “visible amplification of MHCcln1” value is given as “did not result in visible amplification”. In addition, the “visible amplification of OCT-T1” value in test [2] was “did not result in visible amplification”. Moreover, the “effect on amplification of the non-G+C-rich template OCT1” value in the test with OCT1 template (52% G+C) (betaine >1.0 M) was “inhibitory”. Further, the “amplification of OCT1” value in the test on OCT1 template is on record as “could be amplified”. Further, in test [3], the “amplification of OCT-T1” value is given as “could be amplified”. The “amplification of TFR” value in the test with TFR template (44% G+C) is “could be amplified”. In addition, in the test on MHCcln1 template, the “amplification of MHCcln1” value is on record as “could be amplified”. The entries for the “amplification of all four templates” value in test [4] (2.2 M betaine (lane 12)) and in test [4] (setting [5]) were “amplified to a varying extent” and “variable amplification”, respectively. For the same compound, the “uniformity of amplification of the four templates” value in test [4] is on record as “not amplified uniformly”.
As to `OCC(O)CO` [glycerol], the “visible amplification of MHCcln1” value in test [1] is on record as “did not result in visible amplification”. For the same compound, in test [2], the “visible amplification of OCT-T1” value was “did not result in visible amplification”.
In the case of `C[N+](C)(C)C.[Cl-]` [TMAC, tetramethylammonium chloride], the “visible amplification of MHCcln1” value in test [1] is “did not result in visible amplification”. The “visible amplification of OCT-T1” value in test [2] is listed as “did not result in visible amplification”. The “effect on amplification of the non-G+C-rich template OCT1” value in the test with OCT1 template (52% G+C) (TMACl >100 mM) is “inhibitory”. In the test on OCT1 template, the “effect on amplification of OCT1” value is “inhibit amplification”. Further, the OCT-T1 amplification result in test [3] is “unable to facilitate amplification”. The TFR amplification entry in the test with TFR template (44% G+C) is reported as “unable to facilitate amplification”.
For `CC(=O)[O-].C[N+](C)(C)C` [TMAA, tetramethylammonium acetate], in the test with OCT1 template, the “effect on amplification of OCT1” value was “inhibit amplification”. For the same compound, the OCT-T1 amplification entry in test [3] is recorded as “unable to facilitate amplification”. Also, the TFR amplification result in the test with TFR template (44% G+C) is “unable to facilitate amplification”.
On to `NC=O` [formamide], for which the “visible amplification of MHCcln1” value in test [1] was “did not result in visible amplification”. The “visible amplification of OCT-T1” value in test [2] is listed as “did not result in visible amplification”. In addition, the “effect on amplification of the non-G+C-rich template OCT1” value in the test with OCT1 template (52% G+C) (formamide >5%) was “inhibitory”.
